Source: patent US20200239530A1, “COMPOUNDS AND METHODS OF MODULATING PROTEIN DEGRADATION” (Vividion Therapeutics, Inc., priority 2017, published 2020)

Assays:
Assay in all cases: Cysteine liganding, probe competition
Assay type in all cases: binding
[1] = target: T1, RNF20 E3 ubiquitin-protein ligase BRE1A (Homo sapiens, UniProt Q5VTR2)
T1 construct: Cells were resuspended in cold PBS on ice and sonicated with a probe sonicator to achieve lysis; endogenous in cells
Summary of the method: (§1)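 Read-out is loss of desthiobiotin iodoacetamide labelling at cysteines, measured on streptavidin-enriched tryptic peptides. Compound preincubation ran 1 hr at 25° C in PBS lysate holding 5 mg/ml proteome before the probe was added.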

[2] = target: T2, RNF40 E3 ubiquitin-protein ligase BRE1B (Homo sapiens, UniProt O75150)
T2 construct: Cells were resuspended in cold PBS on ice and sonicated with a probe sonicator to achieve lysis; endogenous in cells
T2 sequence (O75150 whole entry): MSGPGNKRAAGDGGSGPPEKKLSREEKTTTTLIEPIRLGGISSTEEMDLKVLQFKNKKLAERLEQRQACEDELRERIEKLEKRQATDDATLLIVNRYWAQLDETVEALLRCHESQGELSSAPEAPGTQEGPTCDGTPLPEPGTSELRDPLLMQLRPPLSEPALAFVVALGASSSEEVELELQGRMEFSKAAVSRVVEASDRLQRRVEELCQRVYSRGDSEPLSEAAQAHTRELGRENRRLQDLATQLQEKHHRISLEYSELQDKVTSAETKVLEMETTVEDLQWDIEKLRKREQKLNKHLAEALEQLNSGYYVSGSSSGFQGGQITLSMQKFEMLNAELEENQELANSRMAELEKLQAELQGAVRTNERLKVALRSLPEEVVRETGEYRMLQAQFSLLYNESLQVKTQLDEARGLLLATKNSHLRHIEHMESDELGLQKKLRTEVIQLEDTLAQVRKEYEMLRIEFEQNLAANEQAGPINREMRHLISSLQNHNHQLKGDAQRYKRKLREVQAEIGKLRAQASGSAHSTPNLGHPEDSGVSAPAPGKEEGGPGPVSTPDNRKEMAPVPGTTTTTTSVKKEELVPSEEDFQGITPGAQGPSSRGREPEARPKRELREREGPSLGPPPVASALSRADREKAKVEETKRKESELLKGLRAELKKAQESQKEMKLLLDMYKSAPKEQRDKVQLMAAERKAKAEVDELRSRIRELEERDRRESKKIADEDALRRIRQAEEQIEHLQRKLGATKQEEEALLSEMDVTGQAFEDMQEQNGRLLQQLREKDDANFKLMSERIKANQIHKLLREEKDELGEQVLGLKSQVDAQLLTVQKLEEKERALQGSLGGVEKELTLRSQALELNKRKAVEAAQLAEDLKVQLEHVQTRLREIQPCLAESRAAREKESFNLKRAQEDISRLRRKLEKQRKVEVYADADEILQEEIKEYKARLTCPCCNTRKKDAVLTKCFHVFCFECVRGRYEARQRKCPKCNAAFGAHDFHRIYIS
Summary of the method: as §1

[3] = target: T3, EEF1A1 Elongation factor 1-alpha 1 (Homo sapiens, UniProt P68104)
T3 construct: 200 μL of lysate containing 5 mg/ml proteome was treated with 2 μL of 100× compound stock; endogenous in cells
T3 sequence (P68104 1-462): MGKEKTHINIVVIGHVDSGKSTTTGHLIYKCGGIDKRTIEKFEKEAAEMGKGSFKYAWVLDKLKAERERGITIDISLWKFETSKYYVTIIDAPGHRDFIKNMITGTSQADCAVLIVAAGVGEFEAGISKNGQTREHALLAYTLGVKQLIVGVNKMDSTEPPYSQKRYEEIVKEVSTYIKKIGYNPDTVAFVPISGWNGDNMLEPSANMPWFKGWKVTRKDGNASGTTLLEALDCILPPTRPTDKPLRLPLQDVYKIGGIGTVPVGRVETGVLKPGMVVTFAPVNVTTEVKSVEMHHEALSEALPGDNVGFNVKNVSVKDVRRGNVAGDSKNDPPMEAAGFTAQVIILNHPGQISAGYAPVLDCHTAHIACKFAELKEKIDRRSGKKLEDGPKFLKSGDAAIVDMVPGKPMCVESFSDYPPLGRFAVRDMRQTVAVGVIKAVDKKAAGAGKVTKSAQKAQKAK
Summary of the method: as §1

[4] = target: T4, DDX50 ATP-dependent RNA helicase DDX50 (Homo sapiens, UniProt Q9BQ39)
T4 construct: 200 μL of lysate containing 5 mg/ml proteome was treated with 2 μL of 100× compound stock; endogenous in cells
T4 sequence (Q9BQ39 1-737): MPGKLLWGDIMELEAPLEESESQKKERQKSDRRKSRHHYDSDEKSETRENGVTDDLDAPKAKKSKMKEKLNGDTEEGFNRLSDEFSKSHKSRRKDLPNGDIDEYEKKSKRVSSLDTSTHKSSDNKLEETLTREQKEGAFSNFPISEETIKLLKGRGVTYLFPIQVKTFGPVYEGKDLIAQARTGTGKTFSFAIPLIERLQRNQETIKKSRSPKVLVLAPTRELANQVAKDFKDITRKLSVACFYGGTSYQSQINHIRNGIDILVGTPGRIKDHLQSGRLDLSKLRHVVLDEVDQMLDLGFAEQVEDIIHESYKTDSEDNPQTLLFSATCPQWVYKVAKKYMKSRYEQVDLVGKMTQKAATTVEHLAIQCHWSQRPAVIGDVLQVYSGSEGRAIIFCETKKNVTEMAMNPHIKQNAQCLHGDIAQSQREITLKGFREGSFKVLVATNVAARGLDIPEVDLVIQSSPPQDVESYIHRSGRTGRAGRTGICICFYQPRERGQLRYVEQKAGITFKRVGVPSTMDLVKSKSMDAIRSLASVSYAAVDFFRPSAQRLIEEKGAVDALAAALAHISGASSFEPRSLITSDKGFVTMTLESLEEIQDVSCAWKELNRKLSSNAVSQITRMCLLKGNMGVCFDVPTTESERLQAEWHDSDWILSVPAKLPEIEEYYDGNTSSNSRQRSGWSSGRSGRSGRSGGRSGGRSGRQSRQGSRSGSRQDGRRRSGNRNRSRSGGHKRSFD
Summary of the method: as §1

[5] = EEF1A1 Res# 363, uniprot P68104
[6] = EEF1A1 Res# 370, uniprot P68104

T1 sequence (Q5VTR2 whole entry): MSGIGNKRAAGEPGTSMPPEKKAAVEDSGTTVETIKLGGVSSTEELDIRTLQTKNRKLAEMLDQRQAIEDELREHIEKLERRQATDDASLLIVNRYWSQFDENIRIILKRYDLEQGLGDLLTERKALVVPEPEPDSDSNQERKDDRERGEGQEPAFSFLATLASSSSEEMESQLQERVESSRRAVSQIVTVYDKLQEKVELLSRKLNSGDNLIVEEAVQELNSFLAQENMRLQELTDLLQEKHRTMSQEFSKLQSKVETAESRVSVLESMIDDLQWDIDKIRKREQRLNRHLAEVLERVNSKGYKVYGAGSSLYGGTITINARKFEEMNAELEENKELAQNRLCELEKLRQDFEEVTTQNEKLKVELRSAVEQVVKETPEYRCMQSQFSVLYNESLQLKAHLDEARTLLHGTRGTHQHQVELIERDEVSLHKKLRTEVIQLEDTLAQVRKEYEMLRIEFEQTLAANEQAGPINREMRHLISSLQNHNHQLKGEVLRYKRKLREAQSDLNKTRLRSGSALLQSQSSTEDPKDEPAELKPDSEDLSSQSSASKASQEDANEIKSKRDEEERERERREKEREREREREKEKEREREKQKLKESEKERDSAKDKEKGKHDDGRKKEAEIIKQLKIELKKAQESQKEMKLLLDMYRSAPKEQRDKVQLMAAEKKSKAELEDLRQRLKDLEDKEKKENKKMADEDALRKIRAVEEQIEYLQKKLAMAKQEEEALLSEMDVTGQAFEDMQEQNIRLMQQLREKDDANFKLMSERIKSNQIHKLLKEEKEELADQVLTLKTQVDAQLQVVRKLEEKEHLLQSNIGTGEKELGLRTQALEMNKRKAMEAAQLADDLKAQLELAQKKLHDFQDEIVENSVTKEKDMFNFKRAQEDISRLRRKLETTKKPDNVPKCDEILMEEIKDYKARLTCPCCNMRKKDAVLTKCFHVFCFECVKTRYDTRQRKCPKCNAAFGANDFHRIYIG

## COc1ccc2c(c1)CCCN2C(=O)CCl [KB02]
[1]; RNF20 Res# 383, uniprot Q5VTR2
  Liganded: YES
[2]; 500 uM, UniProt O75150
  percent_inhibition: 24%
[2]; RNF40 Res# 890, uniprot O75150
  Liganded: YES
[3]; [5]
  Liganded: YES
[3]; [6]
  Liganded: YES
[4]; DDX50 Res# 603, uniprot Q9BQ39
  Liganded: YES

## O=C(CCl)Nc1cc(C(F)(F)F)cc(C(F)(F)F)c1 [KBO3]
[1]; uniprot Q5VTR2
  100 Max: 11.0
  100 ave: 0.6
  500 Max: 37.3
  500 ave: 32.6
[2]; uniprot O75150
  100 ave: −9.9
  500 Max: 29.2
  500 ave: 24.5
[2]; uniprot O75150, in % (unit assumed)
  100 Max: −5.2
[3]; [5]
  Liganded: YES
[3]; [6]
  Liganded: YES
[4]; uniprot Q9BQ39
  100 Max: −9.62
  100 ave: −13.925
  500 Max: 28.63
  500 ave: 22.82
